Tests used:
[1] = target: T1, JAK2 (Homo sapiens, UniProt O60674); assay: Kinase competition binding assay (Kd, qPCR readout), JAK2; details: for Kd: Kd class, JAK2, read-out: JAK2 Activity Level; for RCK:JAK2 selectivity ratio: ratio Kd (JAK2): Kd(RCK)
T1 construct: made in house; host or cells: E. coli BL21-derived host (T7 phage) or HEK-293
Procedure: (§1) For most assays, kinase-tagged T7 phage strains were prepared in an E. coli host derived from the BL21 strain. E. coli were grown to log-phase and infected with T7 phage and incubated with shaking at 32° C. until lysis. The lysates were centrifuged and filtered to remove cell debris. The remaining kinases were produced in HEK-293 cells and subsequently tagged with DNA for quantitative PCR (qPCR) detection.
(§2) Streptavidin-coated magnetic beads were treated with biotinylated small molecule ligands for 30 minutes at room temperature to generate affinity resins for kinase assays. The liganded beads were blocked with excess biotin and washed with blocking buffer (SeaBlock (Pierce), 1% BSA, 0.05% Tween 20, 1 mM DTT) to remove unbound ligand and to reduce nonspecific binding. Binding reactions were assembled by combining kinases, liganded affinity beads, and test compounds in 1× binding buffer (20% SeaBlock, 0.17×PBS, 0.05% Tween 20, 6 mM DTT). All reactions were performed in polystyrene 96-well plates in a final volume of 0.135 mL. The assay plates were incubated at room temperature with shaking for 1 hour and the affinity beads were washed with wash buffer (1×PBS, 0.05% Tween 20). The beads were then re-suspended in elution buffer (1×PBS, 0.05% Tween 20, 0.5 μM non-biotinylated affinity ligand) and incubated at room temperature with shaking for 30 minutes. The kinase concentration in the eluates was measured by qPCR.
(§3) An 11-point 3-fold serial dilution of each test compound was prepared in 100% DMSO at 100× final test concentration and subsequently diluted to 1× in the assay (final DMSO concentration=1%). Most Kd values were determined using a compound top concentration=30,000 nM. If the initial Kd determined was <0.5 nM, (the lowest concentration tested), the measurement was repeated with a serial dilution starting at a lower top concentration. A more detailed description of this assay may be found in Fabian, M. A. et al. Nat. Biotechnol. 2005, 23, 329-336, which is incorporated herein in its entirety.
(§4) The biological results of inhibition of the kinase domain protein of RC kinase (RCK) and JAK2 and JAK3 are summarized in Tables 2 and 3, wherein A represents a Kd of <50 nM; B represents 50 nM<Kd<100 nM; C represents 100 nM<Kd<1000 nM; and D represents a Kd>1000 nM.
Additionally, RCK:JAK2 selectivity, as measured by the ratio Kd (JAK2): Kd(RCK) is represented as follows: A represents Kd (JAK2): Kd (RCK)>100; B represents 10<Kd(JAK2): Kd (RCK)<100; C represents 1<Kd (JAK2): Kd (RCK)<10; and D represents Kd(JAK2): Kd (RCK)<1.

[2] = target: T2, kinase domain protein of RC kinase (RCK) (Homo sapiens, UniProt Q56UN5); assay: Kinase competition binding assay (Kd, qPCR readout), RC kinase; details: Kd class, read-out: RCK Activity Level
T2 construct: made in house; host or cells: E. coli BL21-derived host (T7 phage) or HEK-293
T2 sequence (Q56UN5 1061-1324 limits assumed): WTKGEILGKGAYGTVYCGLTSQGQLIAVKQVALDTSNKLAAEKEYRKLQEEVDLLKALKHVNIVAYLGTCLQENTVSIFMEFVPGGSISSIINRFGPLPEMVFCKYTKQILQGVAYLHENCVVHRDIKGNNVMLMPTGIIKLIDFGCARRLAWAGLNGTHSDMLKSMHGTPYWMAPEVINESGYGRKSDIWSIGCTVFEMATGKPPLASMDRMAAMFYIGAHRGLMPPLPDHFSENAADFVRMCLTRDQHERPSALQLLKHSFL
Procedure: as §1, §2, §3, §4

[3] = target: T3, JAK3 (Homo sapiens, UniProt P52333); assay: Kinase competition binding assay (Kd, qPCR readout), JAK3; details: for Kd: Kd class, JAK3, read-out: JAK3 Activity Level; for RCK:JAK3 selectivity ratio: ratio Kd (JAK3): Kd (RCK)
T3 construct: made in house; host or cells: E. coli BL21-derived host (T7 phage) or HEK-293
T3 sequence (P52333 811-1124 limits assumed): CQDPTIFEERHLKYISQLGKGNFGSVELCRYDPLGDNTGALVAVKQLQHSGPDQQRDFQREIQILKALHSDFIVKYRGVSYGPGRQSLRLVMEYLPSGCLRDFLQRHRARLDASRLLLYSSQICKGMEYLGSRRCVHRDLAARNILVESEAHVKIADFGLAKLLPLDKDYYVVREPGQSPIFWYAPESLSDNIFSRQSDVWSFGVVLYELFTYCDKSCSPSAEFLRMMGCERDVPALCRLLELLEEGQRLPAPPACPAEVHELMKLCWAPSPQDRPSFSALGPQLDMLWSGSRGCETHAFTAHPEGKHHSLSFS
Procedure: as §1, §2, §3, §4
Similarly, RCK:JAK3 selectivity, as measured by the ratio Kd (JAK3): Kd (RCK) is represented as follows: A represents Kd (JAK3): Kd (RCK)>100; B represents 10<Kd (JAK3): Kd (RCK)<100; C represents 1<Kd (JAK3): Kd (RCK)<10; and D represents Kd (JAK3): Kd(RCK)<1.

T1 sequence (O60674 840-1132 limits assumed): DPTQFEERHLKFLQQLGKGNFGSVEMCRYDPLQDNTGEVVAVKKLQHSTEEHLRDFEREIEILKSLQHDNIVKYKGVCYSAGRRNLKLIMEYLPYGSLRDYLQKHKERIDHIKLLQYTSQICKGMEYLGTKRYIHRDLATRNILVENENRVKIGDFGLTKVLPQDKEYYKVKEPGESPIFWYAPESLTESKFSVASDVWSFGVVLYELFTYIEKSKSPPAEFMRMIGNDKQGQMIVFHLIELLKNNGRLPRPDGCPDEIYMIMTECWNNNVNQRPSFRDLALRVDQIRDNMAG

| SMILES | Kd [1] [nM] | RCK:JAK2 selectivity ratio [1] | Kd [2] [nM] | Kd [3] [nM] | RCK:JAK3 selectivity ratio [3] |
| --- | --- | --- | --- | --- | --- |
| NC(=O)c1c(Nc2ccc(N3CCCCC3)cn2)n[nH]c1NCc1ccc(O)cc1 [reference compound] | < 50 | D (D represents Kd(JAK2): Kd (RCK)<1) | < 50 | < 50 | D (D represents Kd (JAK3): Kd(RCK)<1) |
| Cc1cc(CNc2[nH]nc(Nc3ccc(N4CCC(C(C)C)CC4)cc3)c2C(N)=O)cc(C)c1O [Compound 58, 5-((4-hydroxy-3,5-dimethylbenzyl)amino)-3-((4-(4-isopropylpiperidin-1-yl)phenyl)amino)-1H-pyrazole-4-carboxamide] | > 1000 | B (B represents 10<Kd(JAK2): Kd (RCK)<100) | 100 to 1000 | > 1000 | B (B represents 10<Kd (JAK3): Kd (RCK)<100) |
| Cc1cc(CNc2[nH]nc(Nc3ccc(CN4CCOCC4)cc3)c2C(N)=O)cc(C)c1O [Compound 51, 5-((4-hydroxy-3,5-dimethylbenzyl)amino)-3-((4-(morpholinomethyl)phenyl)amino)-1H-pyrazole-4-carboxamide] | 100 to 1000 | B (B represents 10<Kd(JAK2): Kd (RCK)<100) | < 50 | > 1000 | B (B represents 10<Kd (JAK3): Kd (RCK)<100) |
| NC(=O)c1c(Nc2ccc(N3CCOCC3)c(Cl)c2)n[nH]c1NCc1ccc(O)cc1 [reference compound] | < 50 | D (D represents Kd(JAK2): Kd (RCK)<1) | < 50 | < 50 | C (C represents 1<Kd (JAK3): Kd (RCK)<10) |
| Cc1cc(CNc2[nH]nc(Nc3cccc(Cl)c3)c2C(N)=O)cc(C)c1O [reference compound] | > 1000 | C (C represents 1<Kd (JAK2): Kd (RCK)<10) | > 1000 | > 1000 | C (C represents 1<Kd (JAK3): Kd (RCK)<10) |
| Cc1cc(CNc2[nH]nc(Nc3ccc(-c4ccccn4)cc3)c2C(N)=O)cc(C)c1O [Compound 9, 5-((4-hydroxy-3,5-dimethylbenzyl)amino)-3-((4-(pyridin-2-yl)phenyl)amino)-1H-pyrazole-4-carboxamide] | > 1000 | B (B represents 10<Kd(JAK2): Kd (RCK)<100) | 50 to 100 | > 1000 | A (A represents Kd (JAK3): Kd (RCK)>100) |
| CC(=O)Nc1cccc(Nc2n[nH]c(NCc3cc(C)c(O)c(C)c3)c2C(N)=O)c1 [Compound 40, 3-((3-acetamidophenyl)amino)-5-((4-hydroxy-3,5-dimethylbenzyl)amino)-1H-pyrazole-4-carboxamide] | > 1000 | C (C represents 1<Kd (JAK2): Kd (RCK)<10) | > 1000 | > 1000 | C (C represents 1<Kd (JAK3): Kd (RCK)<10) |
| Cc1cc(CNc2[nH]nc(Nc3ccc(-n4ccnc4)cc3)c2C(N)=O)cc(C)c1O [drawing 179, reference compound] | < 50 | – | < 50 | < 50 | – |
| Cc1cc(CNc2[nH]nc(Nc3ccc(N4C[C@@H](C)O[C@@H](C)C4)c(Cl)c3)c2C(N)=O)cc(C)c1O [Compound 15, 3-((3-chloro-4-(2,6-dimethylmorpholino)phenyl)amino)-5-((4-hydroxy-3,5-dimethylbenzyl)amino)-1H-pyrazole-4-carboxamide] | > 1000 | B (B represents 10<Kd(JAK2): Kd (RCK)<100) | 50 to 100 | > 1000 | B (B represents 10<Kd (JAK3): Kd (RCK)<100) |
| C[C@@H]1CN(c2ccc(Nc3n[nH]c(NCc4ccc(O)cc4)c3C(N)=O)cc2)C[C@H](C)O1 [reference compound] | < 50 | D (D represents Kd(JAK2): Kd (RCK)<1) | < 50 | < 50 | C (C represents 1<Kd (JAK3): Kd (RCK)<10) |
| Cc1cc(Nc2n[nH]c(NCc3cc(C)c(O)c(C)c3)c2C(N)=O)cnc1N1CCN(C(C)C)CC1 [Compound 13, 5-((4-hydroxy-3,5-dimethylbenzyl)amino)-3-((6-(4-isopropylpiperazin-1-yl)-5-methylpyridin-3-yl)amino)-1H-pyrazole-4-carboxamide] | > 1000 | B (B represents 10<Kd(JAK2): Kd (RCK)<100) | > 1000 | > 1000 | B (B represents 10<Kd (JAK3): Kd (RCK)<100) |
| Cc1cc(CNc2[nH]nc(Nc3ccc(S(N)(=O)=O)cc3)c2C(N)=O)cc(C)c1O [Compound 48, 5-((4-hydroxy-3,5-dimethylbenzyl)amino)-3-((4-sulfamoylphenyl)amino)-1H-pyrazole-4-carboxamide] | 100 to 1000 | C (C represents 1<Kd (JAK2): Kd (RCK)<10) | 100 to 1000 | > 1000 | B (B represents 10<Kd (JAK3): Kd (RCK)<100) |
| N#Cc1cccc(Nc2n[nH]c(NCc3ccc(O)cc3)c2C(N)=O)c1 [reference compound] | < 50 | D (D represents Kd(JAK2): Kd (RCK)<1) | 50 to 100 | < 50 | D (D represents Kd (JAK3): Kd(RCK)<1) |
| NC(=O)c1c(Nc2ccc(-c3ccccn3)cc2)n[nH]c1NCc1ccc(O)cc1 [reference compound] | < 50 | D (D represents Kd(JAK2): Kd (RCK)<1) | < 50 | < 50 | C (C represents 1<Kd (JAK3): Kd (RCK)<10) |
| NC(=O)c1c(Nc2ccc(S(N)(=O)=O)cc2)n[nH]c1NCc1ccc(O)cc1 [reference compound] | < 50 | D (D represents Kd(JAK2): Kd (RCK)<1) | < 50 | < 50 | D (D represents Kd (JAK3): Kd(RCK)<1) |
| Cc1cc(CNc2[nH]nc(Nc3ccc(N4CCSCC4)cc3)c2C(N)=O)cc(C)c1O [Compound 46, 5-((4-hydroxy-3,5-dimethylbenzyl)amino)-3-((4-thiomorpholinophenyl)amino)-1H-pyrazole-4-carboxamide] | 100 to 1000 | B (B represents 10<Kd(JAK2): Kd (RCK)<100) | < 50 | > 1000 | B (B represents 10<Kd (JAK3): Kd (RCK)<100) |
| COc1ccc(C(=O)Nc2ccc(Nc3n[nH]c(NCc4cc(C)c(O)c(C)c4)c3C(N)=O)cc2)cc1 [Compound 57, 5-((4-hydroxy-3,5-dimethylbenzyl)amino)-3-((4-(4-methoxybenzamido)phenyl)amino)-1H-pyrazole-4-carboxamide] | > 1000 | A (A represents Kd (JAK2): Kd (RCK)>100) | 50 to 100 | > 1000 | A (A represents Kd (JAK3): Kd (RCK)>100) |
| NC(=O)c1c(Nc2ccc(CN3CCCCC3)cc2)n[nH]c1NCc1ccc(O)cc1 [reference compound] | < 50 | D (D represents Kd(JAK2): Kd (RCK)<1) | < 50 | < 50 | D (D represents Kd (JAK3): Kd(RCK)<1) |
| COc1ccc(Nc2n[nH]c(NCc3cc(C)c(O)c(C)c3)c2C(N)=O)cc1 [drawing 180, reference compound] | < 50 | – | < 50 | < 50 | – |

From patent US9730914B2, “3,5-diaminopyrazole kinase inhibitors” (Axikin Pharmaceuticals, Inc., priority 2014, dated 2017)
